Experimental data reported in article PMC10041529 (Journal of Medicinal Chemistry, 2023).

What was measured:
[1] = molecular target: T1, GSK3β-mediated phosphorylation of Cyclin D1 (Homo sapiens, UniProt P49841); test: Cyclin D1 phosphorylation profile (Western Blot) in transfected HEK293T cells; assay type: cell-based; conditions: HA-Cyclin D1 + FLAG-GSK3β, 10 μM, 3 h
T1 construct: we used only GSK3β (26–383) kinase domain constructs in our cellular studies; expressed in transfected cells; host or cells: HEK293T (pcDNA3.1, transient)

[2] = system: calcineurin/NFAT pathway with overexpressed GSK3β; test: NFAT translocation assay (EGFP-NFATc1 imaging) in HEK293T cells; assay type: cell-based, human; conditions: pretreatment 3 h, ionomycin 1 h
From the text: One of the important cellular targets of DYRK1A and GSK3β is the NFAT (Nuclear factor of activated T-cells) transcription factor, which plays a major role in regulating the cell cycle.[52] The calcineurin/NFAT signaling controlled by DYRK1A and GSK3β activity is an important target for neurodegenerative processes and β-cell proliferation. Both kinases inactivate NFAT’s transcription factor by phosphorylation of its nuclear pool, which leads to cytosolic export. […] In unstimulated cells, EGFP-NFAT stayed predominantly in the cytosol, and only after stimulation with ionomycin, the nuclear translocation and accumulation of EGFP-NFAT were observed (Figure 4). Overexpression of any of the kinases blocked the nuclear accumulation of EGFP-NFAT upon cell stimulation, proving the negative regulation of the calcineurin/NFAT pathway by DYRK1A or GSK3β.
EGFP-NFATc1 (green) was cotransfected with either a mock vector, DYRK1A (red), or GSK3β (red) into HEK293T cells.
HEK293T cells were grown on a μ-Slide 8 well (IBIDI) to 50%–70% confluency. The plasmids expressing the desired proteins, mCherry-DYRK1A or mCherry-GSK3β and eGFP-NFATc1, were transiently cotransfected for 24 h with PEI Prime (Sigma-Aldrich). […] Images were collected with a Zeiss Axio Observer 3 fluorescence microscope and analyzed in ZEN Blue edition software.

[3] = molecular target: T2, DYRK1A-mediated phosphorylation of Cyclin D1 (Homo sapiens, UniProt Q13627); test: Cyclin D1 phosphorylation profile (Western Blot) in transfected HEK293T cells; assay type: cell-based; conditions: HA-Cyclin D1 + FLAG-DYRK1A, 10 μM, 3 h
T2 construct: expressed in transfected cells; host or cells: HEK293T (pcDNA3.1, transient)

[4] = system: calcineurin/NFAT pathway with overexpressed DYRK1A; test: NFAT translocation assay (EGFP-NFATc1 imaging) in HEK293T cells; assay type: cell-based, human; conditions: 5 μM pretreatment 3 h, ionomycin 1 h
DYRK2 = system: DYRK2; parameters: method as in PMID 21870818; conditions: at 500 nM; cited from earlier work
DYRK1A = system: DYRK1A; parameters: method as in PMID 29191878; conditions: cell lysates; Table S2 of ref 38; read-out: EC50 (Kinobeads); cited from earlier work
CK2α = system: CK2α; parameters: method as in PMID 21870818; conditions: at 500 nM; cited from earlier work
HIPK3 = system: HIPK3; parameters: method as in PMID 21870818; conditions: at 500 nM; cited from earlier work
CLK3 = system: CLK3; parameters: method as in PMID 21870818; conditions: at 500 nM; cited from earlier work
GSK3β = system: GSK3β; parameters: method as in PMID 21870818; conditions: at 500 nM; cited from earlier work
[5] = molecular target: T3, DYRK1A kinase domain (126–490) (Homo sapiens, UniProt Q13627); test: Microscale thermophoresis (MST) direct binding assay; conditions: CK2α vs DYRK1A
T3 construct: The recombinant kinase domains of DYRK1A (126–490) and GSK3β (26–383), both with C-terminal His-tag extension; made in house; host or cells: E. coli LOBSTR

T1 sequence (P49841 26-383): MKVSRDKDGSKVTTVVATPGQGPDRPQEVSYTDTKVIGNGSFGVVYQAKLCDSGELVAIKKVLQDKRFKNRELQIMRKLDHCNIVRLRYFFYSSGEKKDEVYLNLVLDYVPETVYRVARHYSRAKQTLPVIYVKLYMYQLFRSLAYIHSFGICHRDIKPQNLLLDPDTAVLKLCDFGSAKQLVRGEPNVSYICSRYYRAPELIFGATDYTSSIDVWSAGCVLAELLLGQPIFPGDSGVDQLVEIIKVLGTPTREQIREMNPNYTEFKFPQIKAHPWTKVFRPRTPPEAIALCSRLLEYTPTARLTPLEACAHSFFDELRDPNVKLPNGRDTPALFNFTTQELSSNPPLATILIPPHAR

Row | SMILES | effect on GSK3β-mediated Cyclin D1 phosphorylation [1] | nuclear translocation of EGFP-NFAT despite overexpressed GSK3β [2] | effect on DYRK1A-mediated Cyclin D1 phosphorylation [3] | nuclear translocation of EGFP-NFAT despite overexpressed DYRK1A [4] | inhibition of DYRK2 (DYRK2) | EC50 (DYRK1A) [nM] | inhibition of CK2α (CK2α) | inhibition of HIPK3 (HIPK3) | inhibition of CLK3 (CLK3) | inhibition of GSK3β (GSK3β) [%] | difference in binding between CK2α and DYRK1A [5] [fold]
1 | O=C1Cc2c([nH]c3ccc(Br)cc23)-c2ncccc2N1 [1-azakenpaullone] | same effect | reversed the effect of GSK3β-controlled NFAT cellular localization | – | – | – | – | – | – | – | – | –
2 | COc1ccc2c(c1)[nH]c1c(C)nccc12 [harmine] | – | – | fully abolished | restore the calcineurin/NFAT pathway | – | – | – | – | – | – | –
3 | O=C(O)c1ccc2c(c1)nc(Nc1cccc(Cl)c1)c1ccncc12 [CX-4945, 5-(3-Chlorophenylamino)benzo[c][2,6]naphthyridine-8-carboxylic Acid] | – | reversed the effect of GSK3β-controlled NFAT cellular localization | complete inhibition | restore the calcineurin/NFAT pathway | more than 95% | […] | more than 90% | more than 90% | more than 90% | 55 | 5
